From the NIST ThermoML archive (doi:10.1016/j.jct.2016.03.034)

Assay: xn = mol fraction of the nth substance listed
Details: 100 kPa, Liquid; for viscosity: Capillary tube (Ostwald / Ubbelohde) method; for mass density: Vibrating tube method

O=C1CCCO1 [γ-butyrolactone] + CCCCCCCCn1cc[n+](C)c1.O=S(=O)([N-]S(=O)(=O)C(F)(F)F)C(F)(F)F
Details	mass density [kg/m3]	viscosity [mPa·s]
293.15 K, x2 = 0	1129.49	1.86
293.15 K, x2 = 0.0486	1168.04	2.77
293.15 K, x2 = 0.1001	1197.81	4
293.15 K, x2 = 0.1497	1219.5	5.49
293.15 K, x2 = 0.2006	1237.06	7.48
293.15 K, x2 = 0.3037	1262.89	12.83
293.15 K, x2 = 0.394	1278.72	–
293.15 K, x2 = 0.4952	1292.01	29.29
293.15 K, x2 = 0.586	1300.99	–
293.15 K, x2 = 0.7007	1309.94	54.57
293.15 K, x2 = 0.8081	1316.42	–
293.15 K, x2 = 0.9003	1321	87.86
298.15 K, x2 = 0	1124.59	1.71
298.15 K, x2 = 0.0486	1163.25	2.53
298.15 K, x2 = 0.1001	1193.1	3.64
298.15 K, x2 = 0.1497	1214.96	4.9
298.15 K, x2 = 0.2006	1232.47	6.56
298.15 K, x2 = 0.3037	1258.37	10.89
298.15 K, x2 = 0.394	1274.26	–
298.15 K, x2 = 0.4952	1287.58	23.62
298.15 K, x2 = 0.586	1296.61	–
298.15 K, x2 = 0.7007	1305.54	42.86
298.15 K, x2 = 0.8081	1312.07	–
298.15 K, x2 = 0.9003	1316.57	68
303.15 K, x2 = 0	1119.68	1.58
303.15 K, x2 = 0.0486	1158.47	2.31
303.15 K, x2 = 0.1001	1188.35	3.26
303.15 K, x2 = 0.1497	1210.25	4.41
303.15 K, x2 = 0.2006	1227.82	5.8
303.15 K, x2 = 0.3037	1253.81	9.44
303.15 K, x2 = 0.394	1269.73	–
303.15 K, x2 = 0.4952	1283.09	19.3
303.15 K, x2 = 0.586	1292.14	–
303.15 K, x2 = 0.7007	1301.1	34.7
303.15 K, x2 = 0.8081	1307.63	–
303.15 K, x2 = 0.9003	1312.16	53.86
308.15 K, x2 = 0	1114.78	1.47
308.15 K, x2 = 0.0486	1153.69	2.12
308.15 K, x2 = 0.1001	1183.64	2.96
308.15 K, x2 = 0.1497	1205.57	3.97
308.15 K, x2 = 0.2006	1223.18	5.15
308.15 K, x2 = 0.3037	1249.22	8.26
308.15 K, x2 = 0.394	1265.2	–
308.15 K, x2 = 0.4952	1278.6	16.57
308.15 K, x2 = 0.586	1287.67	–
308.15 K, x2 = 0.7007	1296.66	28.87
308.15 K, x2 = 0.8081	1303.22	–
308.15 K, x2 = 0.9003	1307.76	43.53
313.15 K, x2 = 0	1109.87	1.37
313.15 K, x2 = 0.0486	1148.89	1.96
313.15 K, x2 = 0.1001	1178.93	2.72
313.15 K, x2 = 0.1497	1200.87	3.61
313.15 K, x2 = 0.2006	1218.54	4.62
313.15 K, x2 = 0.3037	1244.66	7.27
313.15 K, x2 = 0.394	1260.67	–
313.15 K, x2 = 0.4952	1274.11	13.95
313.15 K, x2 = 0.586	1283.2	–
313.15 K, x2 = 0.7007	1292.22	23.79
313.15 K, x2 = 0.8081	1298.8	–
313.15 K, x2 = 0.9003	1303.36	35.68
318.15 K, x2 = 0	1104.96	1.28
318.15 K, x2 = 0.0486	1144.1	1.82
318.15 K, x2 = 0.1001	1174.21	2.49
318.15 K, x2 = 0.1497	1196.2	3.23
318.15 K, x2 = 0.2006	1213.93	4.17
318.15 K, x2 = 0.3037	1240.09	6.47
318.15 K, x2 = 0.394	1256.15	–
318.15 K, x2 = 0.4952	1269.61	12
318.15 K, x2 = 0.586	1278.74	–
318.15 K, x2 = 0.7007	1287.82	19.85
318.15 K, x2 = 0.8081	1294.4	–
318.15 K, x2 = 0.9003	1298.97	29.79
323.15 K, x2 = 0	1100.05	1.2
323.15 K, x2 = 0.0486	1139.34	1.69
323.15 K, x2 = 0.1001	1169.52	2.29
323.15 K, x2 = 0.1497	1191.56	2.95
323.15 K, x2 = 0.2006	1209.34	3.78
323.15 K, x2 = 0.3037	1235.56	5.8
323.15 K, x2 = 0.394	1251.63	–
323.15 K, x2 = 0.4952	1265.15	10.5
323.15 K, x2 = 0.586	1274.3	–
323.15 K, x2 = 0.7007	1283.4	16.69
323.15 K, x2 = 0.8081	1290.01	–
323.15 K, x2 = 0.9003	1294.6	25.43
